One assay addresses T1, 3×Flag-TFEB (Homo sapiens, UniProt P19484).
T1 construct: expressed in transfected cells
T1 sequence (P19484 1-476): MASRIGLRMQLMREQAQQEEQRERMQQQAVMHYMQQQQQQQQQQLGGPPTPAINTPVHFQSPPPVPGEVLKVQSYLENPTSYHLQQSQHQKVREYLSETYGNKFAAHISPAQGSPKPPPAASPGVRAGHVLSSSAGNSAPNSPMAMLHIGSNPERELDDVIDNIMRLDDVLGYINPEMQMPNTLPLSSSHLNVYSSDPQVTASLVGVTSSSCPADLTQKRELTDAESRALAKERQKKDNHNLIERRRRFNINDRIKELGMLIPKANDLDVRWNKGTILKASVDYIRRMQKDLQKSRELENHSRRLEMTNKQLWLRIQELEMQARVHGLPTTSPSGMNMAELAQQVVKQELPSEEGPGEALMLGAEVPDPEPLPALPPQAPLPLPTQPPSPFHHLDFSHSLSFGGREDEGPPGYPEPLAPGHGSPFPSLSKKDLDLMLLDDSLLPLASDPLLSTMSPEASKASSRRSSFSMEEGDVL
In words: Nuclear translocation of Flag-TFEB in Hela cells stably expressing 3×Flag-TFEB (immunostaining, western blot). In kind it is cell-based. The settings on record: analogs 1 μM, curcumin 10 μM, 12 h, Torin 1 1 μM, 2 h. The protocol: Cells were treated with curcumin (Cur, 10 μM), A2, B3 and C1 (1 μM) for 12 h. […] Data is quantified by ImageJ software and is presented as mean±SD of three replicates for each treatment conditions. At least 1000 cells are analyzed in each treatment group. *p<0.05 vs. the control (0.1% DMSO). FIG. 4C is a western blot showing the expression of endogenous TFEB. […] Data are presented as the mean±SD from three independent experiments. *p<0.05 vs. the control (0.1% DMSO). FIG. 4E is fluorescence images showing expression of 3×Flag-TFEB in Hela cells having treated with Cur (10 μM), A2, B3 and C1 (1 μM) for 12 h. Torin 1 (1 μM) treatment for 2 h is used as a positive control. Cells were fixed and stained with anti-Flag antibody. […] FIG. 4G is the western blot showing the expression of Flag-tagged TFEB in the cytosolic (Cyt.) and nuclear (Nuc.) fractions. ACTB and H3F3A (H3 histone, family 3A) are used as loading control of cytoplasmic and nuclear fraction, respectively. FIG. 4H is showing the relative intensity of TFEB in the cytosolic and nuclear fractions. Data are presented as the mean±SD from three independent experiments. *p<0.05 vs. the control (0.1% DMSO).
HeLa cells stably expressing 3×Flag-TFEB are treated with curcumin analogs E2, E3 and E4 (1 μM) for 12 hours. Torin 1 (1 μM) treatment for 2 hours is used as a positive control. Cells are fixed and stained with anti-Flag antibody (red) and DAPI (blue) (FIG. 18A). TFEB translocate into nucleus are quantified (FIG. 18B). Quantification data are presented as mean±SD of three replicates in a representative experiment. At least 500 cells are analyzed in each treatment group.
HeLa cells stably expressing 3×Flag-TFEB are treated with curcumin analogs E2, E3 and E4 (1 μM) for 12 hours. Torin 1 (1 μM) treatment for 2 hours is used as a positive control. The expression of TFEB in the cytosolic (Cyt.) and nuclear (Nuc.) fractions are determined by western blotting (FIG. 19A) and quantified (FIG. 19B). TUBB (β-tubulin) and H3F3A (H3 histone, family 3A) are used as loading control of cytoplasmic and nuclear fraction respectively. Quantification data are presented as the mean±SD from three independent experiments. *p<0.05 vs. the control (0.1% DMSO).
N2a, Hela and Hela cells stably expressing 3×-Flag-TFEB are cultured in DMEM supplemented with 10% FBS. SH-SY5Y cells are cultured in DMEM/F12 supplemented with 10% FBS. For drug treatment, the full medium is replaced by fresh Opti-MEM I and then the compounds (in 0.1% DMSO) are added to the cells and incubated for 12 h. Inducible PC12 cells overexpressing SNCA (WT and A53T) (a kind gift from Prof. David C. Rubinsztein at Cambridge University) are grown in DMEM supplemented with 10% horse serum, 5% FBS, 50 μg/ml G418, and 150 μg/ml hygromycin B at 37° C., 10% CO2. Cells are treated with 2 μg/ml doxycycline (Dox) for 24 h to induce SNCA expression. The full medium is changed to Opti-MEM I containing the testing compounds for another 48 h.
Cells are lysed on ice in 1× Lysis Buffer (9803, Life Technologies) with complete protease inhibitor mixture (04693124001, Roche Applied Science). Animal tissues are homogenized in nine volumes of ice-cold PBS supplemented with protease inhibitors. Cytosolic and nuclear fractions are isolated using protocols similar to those described previously. Anti-Flag or TFEB antibody is added to the whole cell lysates and Dynabeads® Protein G (10003D, Life Technologies) is used for immunoprecipitation. Proteins are separated by 10-15% SDS-PAGE, transferred, and blotted with the antibodies described. The blots are then incubated with secondary antibodies or the Clean-Blot IP Detection Reagent (21230, Thermo Scientific) at room temperature for 1 h. The protein signals are detected by ECL kit (32106, Pierce) and quantified using ImageJ software.
Cells are seeded on coverslips placed in 24-well plates. […]

The next assay concerns N2a cells. Nature of the assay: LC3 puncta and tfLC3 autophagy flux imaging in N2a cells. In kind it is cell-based, mouse. The settings on record: N2a cells transfected with tfLC3, 12 hours. As to the method:
N2a cells are treated with E4 (1 μM) in the presence or absence of CQ for 12 hours. The cells are fixed and stained with LC3 antibody (red) and DAPI (blue). Representative cells are then selected and photographed under a DeltaVision Deconvolution Microscope (GE Healthcare).
N2a cells are transiently transfected with mRFP-GFP-LC3 (tfLC3) plasmid and then treated with E4 (1 μM) or CQ (1 μM) for 12 hours. Representative cells are then selected and photographed under a DeltaVision Deconvolution Microscope (GE Healthcare).
After transiently knockdown the expression of TFEB, N2a cells are treated with E4 (1 μM) for 12 hours, the cells were then stained with LC3 antibody (red) and DAPI (blue).
Cells are seeded on coverslips placed in 24-well plates. For autophagy flux assay, cells are transfected with tfLC3 plasmid for 24 hours and then treated with the indicated compounds. For other assays, at the end drug treatment, slices are fixed with 3.7% paraformaldehyde, permeabilized in 0.2% Triton X-100 and blocked with 5% BSA. After blocking, the slices are stained with anti-TFEB (1:200) or anti-LC3 (1:500) antibodies overnight at 4° C. […] Cells are visualized using the Eclipse 80i fluorescence microscope (Nikon Instruments Inc.) or the DeltaVision Deconvolution Microscope (GE Healthcare).

Consider `CCC(=O)N1CCN(c2ccc(-n3c(=O)ccc4cnc5ccc(-c6cnc7ccccc7c6)cc5c43)cc2C(F)(F)F)CC1` [Torin 1, reference compound], for which, at 3×Flag-TFEB, the “nuclear translocation of Flag-TFEB” value was “significantly promotes”.
On to `CCN(CC)CCCC(C)Nc1ccnc2cc(Cl)ccc12` (centres unmarked) [CQ, chloroquine, reference compound], for which, in the assay on N2a cells, the “mRFP-GFP-LC3 (tfLC3) puncta (autophagy flux, autolysosome formation)” value was “induced accumulation and colocalization of both GFP and mRFP fluorescence”.

(Values after US9540299B2, “MTOR-independent activator of TFEB for autophagy enhancement and uses thereof” (Hong Kong Baptist University, priority 2015, dated 2017).)
